Results published in patent US11696913B2, “Prolonged ectoparasite-controlling agent for animal” (MITSUI CHEMICALS AGRO, INC., priority 2017, dated 2023).

Legend:
[1] = tested on: Dermacentor variabilis; experiment: In vitro contact test with adult hard ticks (Dermacentor variabilis); details: read-out: acaricidal activity; for pest or weed control at 0.2 µg/cm2, 0.2 µg/cm2: dose 0.2 μg/cm^2, 48 h; for pest or weed control at 1 µg/cm2, 1 µg/cm2: dose 1 μg/cm^2, 48 h
Protocol: (§1) In Vitro Contact Tests with Adult Hard Ticks
(§2) In vitro contact tests with ticks were conducted with adult males and females of Rhipicephalus sanguineus, Ixodes ricinus, or Dermacentor variabilis, or nymphs of Amblyomma americanum.
(§3) For the coating of the test vials, the test substance was dissolved and diluted in acetone p.a. to the desired concentration. The solution was then homogeneously applied to the inner wall and base of a glass vial by turning and rocking on an orbital shaker until complete evaporation of the solvent. For example, with a 900 ppm solution of test substance, an area-based dose of 5 μg/cm^2 was achieved.
(§4) After the solvent was completely evaporated, 5-10 adult ticks were put in each coated test vial, which was then sealed with a perforated plastic lid and incubated in a horizontal position in the dark at room temperature and ambient humidity (Rhipicephalus sanguineus) or in a climate-controlled cabinet (Ixodes ricinus, Dermacentor variabilis, Amblyomma americanum [21° C., 85% rel. hum.]). Acaricidal activity against the respective tick species was determined after 48 h. For this, ticks were collected to the base of the test vial by gentle knocking, and test vials were then incubated on a hotplate at 45-50° C. for no longer than 5 min. Ticks which remained motionless on the base of the test vial or moved uncoordinated without deliberately climbing up to avoid the heat were considered dead or moribund, respectively.
(§5) A substance was judged to have good acaricidal activity against the respective tick species when at least 80% of ticks were found dead or moribund at a dose of the substance of g/cm^2. An acaricidal activity of 100% means all ticks were dead or moribund. An acaricidal activity of 0% means none of the ticks was found dead or moribund.

[2] = tested on: Rhipicephalus (Boophilus) microplus; experiment: In vitro injection test with Rhipicephalus (Boophilus) microplus (BOOPMI Inj); details: 168 h, laid fertile eggs after 7 days, read-out: acaricidal activity; for pest or weed control at 0.00016 mg: dose 0.16 μg/animal injected; for pest or weed control at 0.0008 mg: dose 0.8 μg/animal injected
Protocol: In Vitro Injection Test with Rhipicephalus (Boophilus) Microplus (BOOPMI Inj)
To produce an appropriate mixture for injection, the test substance was dissolved and diluted in dimethyl sulphoxide to the desired concentration. 1 μl of the test mixture was injected into the abdomen of each of 5 engorged adult female cattle ticks (Rhipicephalus (Boophilus) microplus). The ticks were transferred into petri dishes and maintained in a climate-controlled room [28° C., 85% rel. hum.].
Acaricidal activity against cattle ticks was assessed after 7 days by assessment of laid fertile eggs. […] An acaricidal activity of 100% means that none of the ticks laid eggs or laid eggs were infertile; 0% means that the ticks laid eggs, and all the eggs were fertile.

[3] = tested on: Amblyomma americanum; experiment: In vitro contact test with hard ticks (Amblyomma americanum nymphs); details: read-out: acaricidal activity; for pest or weed control at 1 µg/cm2, 1 µg/cm2: dose 1 μg/cm^2, 48 h; for pest or weed control at 0.2 µg/cm2, 0.2 µg/cm2: dose 0.2 μg/cm^2, 48 h
Protocol: as §1, §2, §3, §4, §5

[4] = tested on: Ctenocephalides felis; experiment: In vitro contact test with fleas; details: read-out: insecticidal activity; for pest or weed control at 0.2 µg/cm2, 0.2 µg/cm2: dose 0.2 μg/cm^2, dead or moribund fleas after 48 h; for pest or weed control at 1 µg/cm2, 1 µg/cm2: dose 1 μg/cm^2, dead or moribund fleas after 48 h
Protocol: In Vitro Contact Tests with Fleas
In vitro contact tests with fleas were conducted with adult male and female cat fleas (Ctenocephalides felis).
as §3, with “To coat” for “For the coating of”, “tubes,” for “vials,”, “tube” for “vial”
Upon complete evaporation of the solvent, 5-10 adult cat fleas (Ctenocephalides felis) were added to each coated tube, which was then sealed with a perforated plastic lid and incubated in a horizontal position at room temperature and ambient humidity. After 48 h, insecticidal activity against fleas was determined. For this, fleas were collected to the base of the tube by knocking the tube, and the tube was allowed to stand upright. Fleas which remained motionless at the base or moved in an uncoordinated manner were considered dead or moribund, respectively.
A substance was judged to have good insecticidal activity against Ctenocephalides felis when at least 80% of the fleas were found dead or moribund at a dose of the substance of μg/cm^2. 100% insecticidal activity means that all the fleas were found dead or moribund. 0% insecticidal activity means that no fleas were found dead or moribund.

[5] = tested on: Ixodes ricinus; experiment: In vitro contact test with adult hard ticks (Ixodes ricinus); details: read-out: acaricidal activity; for pest or weed control at 0.2 µg/cm2, 0.2 µg/cm2: dose 0.2 μg/cm^2, 48 h; for pest or weed control at 1 µg/cm2, 1 µg/cm2: dose 1 μg/cm^2, 48 h; for pest or weed control at 5 µg/cm2, 5 µg/cm2: dose 5 μg/cm^2, 48 h
Protocol: as §1, §2, §3, §4, §5

[6] = tested on: Ctenocephalides felis; experiment: Ctenocephalides felis in-vitro feeding test with fleas (CTECFE oral); details: 48 hours, read-out: insecticidal feeding activity; for pest or weed control at 0.8 ppm: dose 0.8 ppm in citrated cattle blood; for pest or weed control at 4 ppm: dose 4 ppm in citrated cattle blood
Protocol: Ctenocephalides felis In-Vitro Feeding Test with Fleas (CTECFE Oral)
To prepare a test blood mixture for feeding fleas, the test substance was dissolved in dimethyl sulphoxide and diluted with citrated cattle blood to the desired concentration.
To assemble the test set-up, about 20 unfed adult male and female cat fleas
(Ctenocephalides felis) were placed in a chamber which was closed at the top and bottom with gauze. A metal cylinder was sealed at one end with parafilm membrane, placed with the sealed base onto the chamber, and filled with the test blood mixture, which could be imbibed by the fleas through the parafilm membrane. The assembled test set-up was maintained at about 37° C. After 48 hours, the insecticidal feeding activity against fleas was determined. 100% means that all of the fleas were killed; 0% means that none of the fleas was killed.

[7] = tested on: Rhipicephalus sanguineus; experiment: In vitro contact test with adult hard ticks (Rhipicephalus sanguineus); details: read-out: acaricidal activity; for pest or weed control at 0.2 µg/cm2, 0.2 µg/cm2: dose 0.2 μg/cm^2, 48 h; for pest or weed control at 0.04 µg/cm2, 0.04 µg/cm2: dose 0.04 μg/cm^2, 48 h; for pest or weed control at 1 µg/cm2, 1 µg/cm2: dose 1 μg/cm^2, 48 h
Protocol: as §1, §2, §3, §4, §5

Row | SMILES | pest or weed control at 0.2 µg/cm2, 0.2 µg/cm2 [1] | pest or weed control at 1 µg/cm2, 1 µg/cm2 [1] | pest or weed control at 0.00016 mg [2] | pest or weed control at 0.0008 mg [2] | pest or weed control at 1 µg/cm2, 1 µg/cm2 [3] | pest or weed control at 0.2 µg/cm2, 0.2 µg/cm2 [4] | pest or weed control at 1 µg/cm2, 1 µg/cm2 [4] | pest or weed control at 0.2 µg/cm2, 0.2 µg/cm2 [5] | pest or weed control at 1 µg/cm2, 1 µg/cm2 [5] | pest or weed control at 5 µg/cm2, 5 µg/cm2 [5] | pest or weed control at 0.8 ppm [6] | pest or weed control at 4 ppm [6] | pest or weed control at 0.2 µg/cm2, 0.2 µg/cm2 [7] | pest or weed control at 0.04 µg/cm2, 0.04 µg/cm2 ([3]; dose 0.04 μg/cm^2, 48 h) | pest or weed control at 0.2 µg/cm2, 0.2 µg/cm2 [3] | pest or weed control at 0.04 µg/cm2, 0.04 µg/cm2 [7] | pest or weed control at 1 µg/cm2, 1 µg/cm2 [7] | pest or weed control at 32 ng ([2]; dose 0.032 μg/animal injected) | pest or weed control at 0.032 ppm ([6]; dose 0.032 ppm in citrated cattle blood) | pest or weed control at 0.16 ppm ([6]; dose 0.16 ppm in citrated cattle blood)
1 | N#Cc1ccc(C(=O)Nc2cccc(C(=O)Nc3c(Br)cc(C(F)(C(F)(F)F)C(F)(F)F)cc3OC(F)(F)F)c2)cc1 [Compound 9] | 90% | 90% | 100% | 100% | 90% | 95% | 95% | 90% | 90% | 90% | 95% | 95% | 90% |  |  |  |  |  |  | 
2 | O=C(Nc1cccc(C(=O)Nc2c(Br)cc(C(F)(C(F)(F)F)C(F)(F)F)cc2OC(F)(F)F)c1)c1ccc(F)cc1 [Compound 12] |  |  | 100% | 100% | 90% | 95% | 95% | 90% | 90% | 90% | 95% | 95% | 90% | 90% | 90% | 90% | 90% |  |  | 
3 | N#Cc1ccc(C(=O)Nc2cccc(C(=O)Nc3c(Br)cc(C(F)(C(F)(F)F)C(F)(F)F)cc3OC(F)(F)F)c2F)cc1 [Compound 13] | 90% | 90% | 100% | 100% | 90% | 95% | 95% | 90% | 90% | 90% | 95% | 95% | 90% |  | 90% | 90% | 90% | 100% | 95% | 95%
